Results published in ChEMBL document CHEMBL1150401, “Genotoxicity of alpha-asarone analogues” (Bioorg Med Chem, 2008).

Experiments:
[1] = system: Salmonella typhimurium; assay: Mutagenic activity in Salmonella Typhimurium TA97 assessed as number of his+ revertants at 1000 ug/plate after 48 to 72 hrs by Ames test in absence of S9 fraction; type: toxicity, organism-based; details: salmonella enterica subsp. enterica serovar typhimurium
[2] = system: Salmonella typhimurium; assay: Mutagenic activity in Salmonella Typhimurium TA98 assessed as number of his+ revertants at 100 ug/plate after 48 to 72 hrs by Ames test in presence of S9 fraction; type: toxicity, organism-based; details: salmonella enterica subsp. enterica serovar typhimurium
[3] = system: Salmonella typhimurium; assay: Mutagenic activity in Salmonella Typhimurium TA97 assessed as number of his+ revertants at 100 ug/plate after 48 to 72 hrs by Ames test in absence of S9 fraction; type: toxicity, organism-based; details: salmonella enterica subsp. enterica serovar typhimurium
[4] = system: Salmonella typhimurium; assay: Mutagenic activity in Salmonella Typhimurium TA97 assessed as number of his+ revertants at 500 ug/plate after 48 to 72 hrs by Ames test in absence of S9 fraction; type: toxicity, organism-based; details: salmonella enterica subsp. enterica serovar typhimurium
[5] = system: Salmonella typhimurium; assay: Mutagenic activity in Salmonella Typhimurium TA102 assessed as number of his+ revertants at 500 ug/plate after 48 to 72 hrs by Ames test in presence of S9 fraction; type: toxicity, organism-based; details: salmonella enterica subsp. enterica serovar typhimurium
[6] = system: Salmonella typhimurium; assay: Mutagenic activity in Salmonella Typhimurium TA102 assessed as number of his+ revertants at 500 ug/plate after 48 to 72 hrs by Ames test in absence of S9 fraction; type: toxicity, organism-based; details: salmonella enterica subsp. enterica serovar typhimurium
[7] = system: Salmonella typhimurium; assay: Cytotoxicity against Salmonella Typhimurium TA102 assessed as growth inhibition oh his+ revertants after 48 to 72 hrs; type: functional, Salmonella enterica subsp. enterica serovar Typhimurium; set-up: scale not given: the % may be the effect or the level left
[8] = system: Salmonella typhimurium; assay: Cytotoxicity against Salmonella Typhimurium TA102 assessed as reduction in his+ revertants after 48 to 72 hrs in absence of S9 fraction; type: functional, Salmonella enterica subsp. enterica serovar Typhimurium; set-up: scale not given: the % may be the effect or the level left
[9] = system: Salmonella typhimurium; assay: Mutagenic activity in Salmonella Typhimurium TA100 assessed as number of his+ revertants at 500 ug/plate after 48 to 72 hrs by Ames test in absence of S9 fraction; type: toxicity, organism-based; details: salmonella enterica subsp. enterica serovar typhimurium
[10] = system: Salmonella typhimurium; assay: Mutagenic activity in Salmonella Typhimurium TA100 assessed as number of his+ revertants at 100 ug/plate after 48 to 72 hrs by Ames test in presence of S9 fraction; type: toxicity, organism-based; details: salmonella enterica subsp. enterica serovar typhimurium
[11] = system: Salmonella typhimurium; assay: Mutagenic activity in Salmonella Typhimurium TA97 assessed as number of his+ revertants at 500 ug/plate after 48 to 72 hrs by Ames test in presence of S9 fraction; type: toxicity, organism-based; details: salmonella enterica subsp. enterica serovar typhimurium
[12] = system: Salmonella typhimurium; assay: Mutagenic activity in Salmonella Typhimurium TA98 assessed as number of his+ revertants at 500 ug/plate after 48 to 72 hrs by Ames test in presence of S9 fraction; type: toxicity, organism-based; details: salmonella enterica subsp. enterica serovar typhimurium
[13] = system: L929; assay: Genotoxicity against mouse L929 cells assessed as number of micronuclei at 50 ug/ml; type: toxicity, cell-based
[14] = system: Salmonella typhimurium; assay: Mutagenic activity in Salmonella Typhimurium TA102 assessed as number of his+ revertants at 100 ug/plate after 48 to 72 hrs by Ames test in presence of S9 fraction; type: toxicity, organism-based; details: salmonella enterica subsp. enterica serovar typhimurium
[15] = system: Salmonella typhimurium; assay: Mutagenic activity in Salmonella Typhimurium TA100 assessed as number of his+ revertants at 100 ug/plate after 48 to 72 hrs by Ames test in absence of S9 fraction; type: toxicity, organism-based; details: salmonella enterica subsp. enterica serovar typhimurium
[16] = system: Salmonella typhimurium; assay: Mutagenic activity in Salmonella Typhimurium TA97 assessed as number of his+ revertants at 1000 ug/plate after 48 to 72 hrs by Ames test in presence of S9 fraction; type: toxicity, organism-based; details: salmonella enterica subsp. enterica serovar typhimurium
[17] = system: Salmonella typhimurium; assay: Mutagenic activity in Salmonella Typhimurium TA98 assessed as number of his+ revertants at 500 ug/plate after 48 to 72 hrs by Ames test in absence of S9 fraction; type: toxicity, organism-based; details: salmonella enterica subsp. enterica serovar typhimurium
[18] = system: Salmonella typhimurium; assay: Mutagenic activity in Salmonella Typhimurium TA100 assessed as number of his+ revertants at 1000 ug/plate after 48 to 72 hrs by Ames test in presence of S9 fraction; type: toxicity, organism-based; details: salmonella enterica subsp. enterica serovar typhimurium
[19] = system: Salmonella typhimurium; assay: Mutagenic activity in Salmonella Typhimurium TA100 assessed as number of his+ revertants at 1000 ug/plate after 48 to 72 hrs by Ames test in absence of S9 fraction; type: toxicity, organism-based; details: salmonella enterica subsp. enterica serovar typhimurium
[20] = system: Salmonella typhimurium; assay: Mutagenic activity in Salmonella Typhimurium TA102 assessed as number of his+ revertants at 100 ug/plate after 48 to 72 hrs by Ames test in absence of S9 fraction; type: toxicity, organism-based; details: salmonella enterica subsp. enterica serovar typhimurium
[21] = system: Salmonella typhimurium; assay: Mutagenic activity in Salmonella Typhimurium TA97 assessed as number of his+ revertants at 100 ug/plate after 48 to 72 hrs by Ames test in presence of S9 fraction; type: toxicity, organism-based; details: salmonella enterica subsp. enterica serovar typhimurium
[22] = system: Salmonella typhimurium; assay: Cytotoxicity against Salmonella Typhimurium TA102 assessed as reduction in his+ revertants after 48 to 72 hrs in presence of S9 fraction; type: functional, Salmonella enterica subsp. enterica serovar Typhimurium; set-up: scale not given: the % may be the effect or the level left
[23] = system: Salmonella typhimurium; assay: Mutagenic activity in Salmonella Typhimurium TA98 assessed as number of his+ revertants at 100 ug/plate after 48 to 72 hrs by Ames test in absence of S9 fraction; type: toxicity, organism-based; details: salmonella enterica subsp. enterica serovar typhimurium
[24] = system: Salmonella typhimurium; assay: Mutagenic activity in Salmonella Typhimurium TA102 assessed as number of his+ revertants at 1000 ug/plate after 48 to 72 hrs by Ames test in absence of S9 fraction; type: toxicity, organism-based; details: salmonella enterica subsp. enterica serovar typhimurium
[25] = system: Salmonella typhimurium; assay: Mutagenic activity in Salmonella Typhimurium TA98 assessed as number of his+ revertants at 1000 ug/plate after 48 to 72 hrs by Ames test in presence of S9 fraction; type: toxicity, organism-based; details: salmonella enterica subsp. enterica serovar typhimurium
[26] = system: Salmonella typhimurium; assay: Mutagenic activity in Salmonella Typhimurium TA100 assessed as number of his+ revertants at 500 ug/plate after 48 to 72 hrs by Ames test in presence of S9 fraction; type: toxicity, organism-based; details: salmonella enterica subsp. enterica serovar typhimurium
[27] = system: Salmonella typhimurium; assay: Mutagenic activity in Salmonella Typhimurium TA98 assessed as number of his+ revertants at 1000 ug/plate after 48 to 72 hrs by Ames test in absence of S9 fraction; type: toxicity, organism-based; details: salmonella enterica subsp. enterica serovar typhimurium
[28] = system: Salmonella typhimurium; assay: Mutagenic activity in Salmonella Typhimurium TA102 assessed as number of his+ revertants at 1000 ug/plate after 48 to 72 hrs by Ames test in presence of S9 fraction; type: toxicity, organism-based; details: salmonella enterica subsp. enterica serovar typhimurium
[29] = system: L929; assay: Genotoxicity against mouse L929 cells assessed as number of micronuclei at 100 ug/ml; type: toxicity, cell-based
[30] = system: Salmonella typhimurium; assay: Cytotoxicity against Salmonella Typhimurium TA97 assessed as reduction in his+ revertants number at 500 ug/plate after 48 to 72 hrs in presence of S9 fraction; type: functional, Salmonella enterica subsp. enterica serovar Typhimurium; set-up: scale not given: the % may be the effect or the level left
[31] = system: Salmonella typhimurium; assay: Cytotoxicity against Salmonella Typhimurium TA100 assessed as reduction in his+ revertants number at 500 ug/plate after 48 to 72 hrs in presence of S9 fraction; type: functional, Salmonella enterica subsp. enterica serovar Typhimurium; set-up: scale not given: the % may be the effect or the level left
[32] = system: Salmonella typhimurium; assay: Cytotoxicity against Salmonella Typhimurium TA102 assessed as reduction in his+ revertants number at 500 ug/plate after 48 to 72 hrs in absence of S9 fraction; type: functional, Salmonella enterica subsp. enterica serovar Typhimurium; set-up: scale not given: the % may be the effect or the level left
[33] = system: Salmonella typhimurium; assay: Cytotoxicity against Salmonella Typhimurium TA98 assessed as reduction in his+ revertants number at 500 ug/plate after 48 to 72 hrs in absence of S9 fraction; type: functional, Salmonella enterica subsp. enterica serovar Typhimurium; set-up: scale not given: the % may be the effect or the level left
[34] = system: Salmonella typhimurium; assay: Cytotoxicity against Salmonella Typhimurium TA100 assessed as reduction in his+ revertants number at 500 ug/plate after 48 to 72 hrs in absence of S9 fraction; type: functional, Salmonella enterica subsp. enterica serovar Typhimurium; set-up: scale not given: the % may be the effect or the level left
[35] = system: Salmonella typhimurium; assay: Cytotoxicity against Salmonella Typhimurium TA102 assessed as reduction in his+ revertants number at 500 ug/plate after 48 to 72 hrs in presence of S9 fraction; type: functional, Salmonella enterica subsp. enterica serovar Typhimurium; set-up: scale not given: the % may be the effect or the level left
[36] = system: Salmonella typhimurium; assay: Cytotoxicity against Salmonella Typhimurium TA97 assessed as reduction in his+ revertants number at 500 ug/plate after 48 to 72 hrs in absence of S9 fraction; type: functional, Salmonella enterica subsp. enterica serovar Typhimurium; set-up: scale not given: the % may be the effect or the level left
[37] = system: Salmonella typhimurium; assay: Cytotoxicity against Salmonella Typhimurium TA98 assessed as reduction in his+ revertants number at 500 ug/plate after 48 to 72 hrs in presence of S9 fraction; type: functional, Salmonella enterica subsp. enterica serovar Typhimurium; set-up: scale not given: the % may be the effect or the level left
[38] = system: Salmonella typhimurium; assay: Cytotoxicity against Salmonella Typhimurium TA100 assessed as reduction in his+ revertants after 48 to 72 hrs in presence of S9 fraction; type: functional, Salmonella enterica subsp. enterica serovar Typhimurium; set-up: scale not given: the % may be the effect or the level left
[39] = system: Salmonella typhimurium; assay: Cytotoxicity against Salmonella Typhimurium TA98 assessed as reduction in his+ revertants after 48 to 72 hrs in presence of S9 fraction; type: functional, Salmonella enterica subsp. enterica serovar Typhimurium; set-up: scale not given: the % may be the effect or the level left
[40] = system: Salmonella typhimurium; assay: Cytotoxicity against Salmonella Typhimurium TA100 assessed as growth inhibition after 48 to 72 hrs; type: functional, Salmonella enterica subsp. enterica serovar Typhimurium; set-up: scale not given: the % may be the effect or the level left
[41] = system: Salmonella typhimurium; assay: Cytotoxicity against Salmonella Typhimurium TA97 assessed as reduction in his+ revertants after 48 to 72 hrs in presence of S9 fraction; type: functional, Salmonella enterica subsp. enterica serovar Typhimurium; set-up: scale not given: the % may be the effect or the level left
[42] = system: Salmonella typhimurium; assay: Cytotoxicity against Salmonella Typhimurium TA97 assessed as growth inhibition after 48 to 72 hrs; type: functional, Salmonella enterica subsp. enterica serovar Typhimurium; set-up: scale not given: the % may be the effect or the level left

Row | SMILES | Activity [1] | Activity [2] | Activity [3] | Activity [4] | Activity [5] | Activity [6] | Activity [9] | Activity [10] | Activity [11] | Activity [12] | Activity [14] | Activity [15] | Activity [16] | Activity [17] | Activity [18] | Activity [19] | Activity [20] | Activity [21] | Activity [23] | Activity [25] | other results
1 | C/C=C/c1c(OC)cc(OC)cc1OC | 223 | 24 | 163 | 190 | 328 | 298 | 134 | 153 | 200 | 18 | 333 | 138 | 187 | 32 | 126 | 148 | 275 | 175 | 32 | 22 | Activity [7]: 28%; Activity [8]: 28%; Activity [13]: 3.44%; Activity [22]: 27%; Activity [24]: 195; Activity [26]: 156; Activity [27]: 26; Activity [28]: 218
2 | C/C=C/c1c(OC)ccc(OC)c1OC.CC(C)CCC[C@@H](C)[C@H]1CC[C@H]2[C@@H]3CC=C4C[C@@H](O)CC[C@]4(C)[C@H]3CC[C@]12C | 141 | 35 | 153 | 137 | 162 | 159 | 104 | 188 | 126 | 27 | 270 | 112 | 171 | 26 | 162 | 96 | 270 | 191 | 26 | 42 | Activity [7]: 28%; Activity [8]: 43%; Activity [22]: 46%; Activity [24]: 90; Activity [26]: 186; Activity [29]: 1.61%; Activity [27]: 23; Activity [28]: 49
3 | C/C=C/c1ccc(OC)c(OC)c1OC | 131 | 44 | 151 | 151 | 335 | 203 | 116 | 167 | 200 | 43 | 343 | 108 | 172 | 22 | 132 | 100 | 236 | 212 | 27 | 26 | Activity [30]: 9%; Activity [31]: 9%; Activity [32]: 23%; Activity [33]: 23%; Activity [34]: 23%; Activity [35]: 9%; Activity [36]: 23%; Activity [37]: 9%; Activity [24]: 160; Activity [26]: 160; Activity [29]: 3.79%; Activity [27]: 20; Activity [28]: 233
4 | C/C=C/c1cc(OC)c(OC)c(OC)c1 | 73 | 30 | 109 | 88 | 236 | 155 | 88 | 119 | 164 | 18 | 281 | 109 | 155 | 24 | 87 | 73 | 241 | 194 | 30 | 15 | Activity [38]: 22%; Activity [39]: 22%; Activity [40]: 44%; Activity [22]: 22%; Activity [41]: 22%; Activity [42]: 59%; Activity [26]: 108; Activity [29]: 1.74%; Activity [27]: 32; Activity [28]: 165
